# Results reported in patent US20240010635A1, “NOVEL INDIRUBIN DERIVATIVES HAVING HETEROBICYCLIC MOIETIES AND THE USE THEREOF” (priority 2022, published 2024).
# Where two headings read alike, the source gives them in different places.
# How the values were obtained:
# Molm-13 = test: Cell proliferation inhibition in AML cell line Molm-13 (Alamar Blue); type: cell-based; conditions: Homo sapiens, Molm-13, 72 hours, read-out: Cell proliferation inhibitory activity (GI50) Molm-13
# From the text: (§1) Cell proliferation inhibition experiments on acute myeloid leukemia (AML) cell lines tested FLT3 inhibitory activity using MV4-11, Molm-13, and Molm-14 cells, which are FLT3-ITD-expressed AML cell lines. The origin of all cell lines is human-derived cell lines, and the place of purchase and culture conditions of each cell line are as follows.
# (§2) MV4-11 cells were purchased form the American Type Culture Collection (ATCC, Rockville, MD, USA, cat #CRL-9591), Molm-13 (DSMZ, cat #ACC554), Molm-14 (DSMZ, cat #ACC777), and then cultured in RPMI 1640 medium (Corning Co. 10-040-CV) supplemented with 10% fetal bovine serum, 1% penicillin/streptomycin and 4 mM L-glutamine (Life Technology, GrandIsland, NY).
# (§3) Cell viability was evaluated by Resazurin redox-based analysis method with Alamar Blue Assay Kit (Invitrogen, USA). Specifically, for MV4-11, Molm-13 and Molm-14 cells, 8000 cells were plated on 384-well plates in 45 μl of medium. Compounds were treated with dimethyl sulfoxide (DMSO) as a negative control group. After 3 days (72 hours) of compound addition, 5 μl of Alamar Blue kit reagent was added to each well of 384-well plate and incubated at 37° C. for 2 hours in a humidified CO2 incubator. After incubation, fluorescence density (Flu) was measured at a wavelength of 544 nm and 590 nm using SpectraMax iD3 Multi Mode Microplate Reader (Molecular Devices, ID3-STD). GI50 was calculated by nonlinear regression using Prism version 5.01 (GraphPad, LaJolla, CA, USA).
# Molm-14 = test: Cell proliferation inhibition in AML cell line Molm-14 (Alamar Blue); type: cell-based; conditions: Homo sapiens, Molm-14, 72 hours, read-out: Cell proliferation inhibitory activity (GI50) Molm-14
# From the text: as §1, §2, §3
SMILES,GI50 (Molm-13; pM) [pM],GI50 (Molm-14; pM) [pM],GI50 (Molm-13) [pM],GI50 (Molm-14) [pM]
"O=C1Nc2ccc(Br)cc2/C1=C1/Nc2ccccc2/C1=N\OCCN1C[C@H]2C[C@@H]1CN2 [Example 13, (2Z,3E)-3-((2-((1R,4R)-2,5-diazabicyclo[2.2.1]heptan-2-yl)ethoxy)imino)-5′-bromo-[2,3′-biindolinylidene]-2′-one]",200,170,–,–
"O=C1Nc2ccccc2/C1=C1/Nc2ccccc2/C1=N\OCCN1C[C@@H]2C[C@H]1CN2 [Example 5, (2Z,3E)-3-((2-((1S,4S)-2,5-diazabicyclo[2.2.1]heptan-2-yl)ethoxy)imino)-[2,3′-biindolinylidene]-2′-one]",–,–,1780,1660
"O=C1Nc2ccc(F)cc2/C1=C1/Nc2ccccc2/C1=N\OCCN1C[C@H]2C[C@@H]1CN2 [Example 9, (2Z,3E)-3-((2-((1R,4R)-2,5-diazabicyclo[2.2.1]heptan-2-yl)ethoxy)imino)-5′-fluoro-[2,3′-biindolinylidene]-2′-one]",500,470,–,–
"O=C1Nc2ccccc2/C1=C1/Nc2ccccc2/C1=N\OCCN1C[C@H]2C[C@@H]1CN2 [Example 4, (2Z,3E)-3-((2-((1R,4R)-2,5-diazabicyclo[2.2.1]heptan-2-yl)ethoxy)imino)-[2,3′-biindolinylidene]-2′-one]",40,30,–,–
"O=C1Nc2ccc(Cl)cc2/C1=C1/Nc2ccccc2/C1=N\OCCN1C[C@H]2C[C@@H]1CN2 [Example 11, (2Z,3E)-3-((2-((1R,4R)-2,5-diazabicyclo[2.2.1]heptan-2-yl)ethoxy)imino)-5′-chloro-[2,3′-biindolinylidene]-2′-one]",162,100,–,–
"O=C1Nc2ccc(F)cc2/C1=C1/Nc2ccccc2/C1=N\OCCN1C[C@@H]2C[C@H]1CN2 [Example 10, (2Z,3E)-3-((2-((1S,4S)-2,5-diazabicyclo[2.2.1]heptan-2-yl)ethoxy)imino)-5′-fluoro-[2,3′-biindolinylidene]-2′-one]",–,–,1390,1860
